Source: US8741843B2, “Compositions and methods for inducing angiogenesis” (priority 2006, dated 2014)
Entries after “also recorded” stand apart in the source; their conditions may differ.

Tests used:
ERK½ = ERK½ phosphorylation in endothelial cells under hypoxia (Western blot, densitometry); type: cell-based, human; details: for percent adjusted volume of pERK band: FIG. 31, cord 1, 10 ng/ml; for ERK½ phosphorylation (in words): endothelial cells under hypoxia; for ERK½ phosphorylation (in words) / incubation time of maximal ERK phosphorylation (densitometry, data not shown): 10 ng/ml; for incubation time of maximal ERK phosphorylation (densitometry, data not shown): hypoxia
Experimental: FIGS. 30a-b are Western blot analyses depicting induction of phosphorylation of ERK by ADoPep1 and Motif A. Endothelial cells under starvation conditions and 5 hours hypoxia were incubated for 5 (lanes 2 and 6), 20 (lanes 3 and 7), 30 (lanes 4 and 8) and 60 (lanes 5 and 9) minutes with 10 ng/ml ADoPep1 (Lanes 2-5) or Motif A (lanes 6-9) peptides or remained under hypoxia without a further incubation with a peptide (lane 1). After incubation, lysates were prepared, subject to SDS-PAGE and blotting on a nitrocellulose membrane. Western Blot analysis was performed using anti-Phospho ERK½ antibody. […] FIG. 30a—Experiment 1; FIG. 30b—Experiment 2. The percent adjusted volume as determined by a densitometric analysis software to compare net band densities was as follows: FIG. 30a, lane 1-4.5, lane 2-9.3, lane 3-13.7, lane 4-13.3, lane 5-11.2, lane 6-10.7, lane 7-12.4, lane 8-12.3 and lane 9-12.4; FIG. 30b, lane 1-4.21, lane 2-12.4, lane 3-12.5, lane 4-14.8, lane 5-10.9, lane 6-14.9, lane 7-9.8, lane 8-12.7 and lane 9-7.8.
FIG. 31 is a Western blot analysis depicting the level of phosphorylated ERK (pERK) in endothelial cells activated for 20 minutes with ADOPep1 and motif A and inhibited by pERK-inhibitor peptide. Endothelial cells (from cord 1) under starvation conditions and 5 hours hypoxia were incubated with 10 ng/ml ADOPep1 (lanes 3 and 4) or motif A (lanes 1 and 2) peptides in the presence (lanes 2 and 4) or absence (lanes 1 and 3) of p-ERK-inhibitor peptide (Santa Cruz). For control, the endothelial cells under starvation conditions and 5 hours hypoxia (lane 5) were also incubated with the p-ERK-inhibitor peptide (lane 6). […] The percent adjusted volume as determined by a densitometric analysis software to compare net band densities was as follows: lane 1-19, lane 2-14, lane 3-14, lane 4-8.8, lane 5-11, lane 6-2.1.
FIGS. 32a-b are Western blot analyses depicting the effect of ADOPeps on the level of phosphorylated ERK. Endothelial cells (EC) from cord 1 (FIG. 32a) or cord 2 (FIG. 32b) under hypoxia (5 hours) were incubated for 20 or 30 minutes with 10 ng/ml of AdoPep1, AdoPep2 and AdoPep3 or remained untreated (i.e., under hypoxia without any peptide). Western Blot analyses of samples cell lysates were performed with anti Phospho ERK antibody on nitrocellulose membranes. […] The percent adjusted volume as determined by a densitometric analysis software to compare net band densities was as follows: FIG. 32a, lane 1-11, lane 2-13, lane 3-11, lane 4-5, lane 5-11, lane 6-13, lane 7-17, lane 8-16.7; FIG. 32b, lane 1-17, lane 2-22, lane 3-19, lane 4-7, lane 5-8, lane 6-13, lane 7-14, lane 8-1.

mouse ischemic hind limb = assay: Mouse hind-limb ischemia model, laser Doppler blood perfusion; type: in vivo; details: 0.1 microgram/mouse i.m., day 21 after surgery, vs PBS
Experimental: A mouse hind limb model was created by excision of femoral artery of C57B1 mouse hind limb, the non-operated limb served as a control. ADOPep1 (SEQ ID NO:2; red symbols) and 3 (SEQ ID NO:4; green symbols) were injected intra-muscularly one day after surgery at 0.1 (squares) and 1 (circles) micrograms/mouse. Injection of PBS (black diamond) was used as a control. Blood flow was measured using a laser Doppler immediately (T0) or at 7 (T7), 14 (T14) and 21 (T21) days after surgery. The average perfusion of each limb was determined and the perfusion ratio [expressed as Relative Perfusion (ischemic left/control right leg)] was plotted against time.
A mouse hind limb ischemia model was used. Ischemia was created in the C57B1 strain mouse by ligation and excision of the femoral artery on the left hind limb. The right hind limb served as a control. A day after the operation ADOPep1 and 3 were injected intramuscular at a site close to the operation. […] The blood perfusion was measured using a Laser Doppler Blood perfusion analyzer (Perimed, Sweden) one day post operation and 7, 14, 21 days post operation. The average perfusion of each limb was computed and percent perfusion ratio was expressed as the ischemic (left)/control (right) percent perfusion ratio.

GRP78 = GRP78 (Homo sapiens, UniProt P11021); assay: GRP78 receptor internalization in endothelial cells under hypoxia; type: cell-based; parameters: endogenous in cells; host or cells: HUVEC / endothelial cells from umbilical cords, under normoxia or hypoxia; details: 10 ng/ml, after 5 minutes of incubation
Sequence of GRP78 (P11021 19-654): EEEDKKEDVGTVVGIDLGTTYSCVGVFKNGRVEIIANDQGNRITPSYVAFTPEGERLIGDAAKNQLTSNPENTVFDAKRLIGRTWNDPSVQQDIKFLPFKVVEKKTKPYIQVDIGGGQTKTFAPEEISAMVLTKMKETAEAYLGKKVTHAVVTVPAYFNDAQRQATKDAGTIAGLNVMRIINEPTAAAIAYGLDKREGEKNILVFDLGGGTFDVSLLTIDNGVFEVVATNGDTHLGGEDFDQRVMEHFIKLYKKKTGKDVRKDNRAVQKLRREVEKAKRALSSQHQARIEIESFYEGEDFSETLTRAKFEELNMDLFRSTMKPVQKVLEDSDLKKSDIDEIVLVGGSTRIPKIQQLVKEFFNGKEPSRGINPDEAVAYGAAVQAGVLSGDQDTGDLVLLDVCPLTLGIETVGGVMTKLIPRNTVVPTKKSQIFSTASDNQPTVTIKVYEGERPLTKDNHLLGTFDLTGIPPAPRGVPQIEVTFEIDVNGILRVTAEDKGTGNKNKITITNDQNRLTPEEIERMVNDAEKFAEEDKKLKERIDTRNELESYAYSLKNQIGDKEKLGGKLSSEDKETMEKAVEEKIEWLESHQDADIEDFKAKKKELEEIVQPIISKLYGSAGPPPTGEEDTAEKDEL
Experimental: FIG. 29 is a graph depicting GRP78 receptor internalization response to ADOPep1 binding under hypoxic conditions. Endothelial cells were incubated under starvation conditions and hypoxia over night. Cells were incubated with 10 ng/ml ADoPep1 for 5, 15, 30 and 60 minutes. For membrane staining biotinylated AdoePep1 at 5 micrograms was added to intact cells for 1 hour and replaced by streptavidin FITC. For intracellular staining, cells were fixed with 1% paraformaldehyde followed by 15 minutes incubation with 0.1% saponin. After washing of cells, biotinylated AdoPep was added to the cells. The samples were analyzed with a FACScan (Beckton Dickinson). Membrane staining is shown by the blue bars (results are expressed in percentages, as normalized to untreated cells); Mean intracellular staining is shown by the purple bars (results are expressed in mean fluorescence);

[1] = FIG. 30a experiment 1, 10 ng/ml, 5 minutes, hypoxia alone 4.5
[2] = FIG. 30a experiment 1, 10 ng/ml, 20 minutes, hypoxia alone 4.5
[3] = FIG. 30a experiment 1, 10 ng/ml, 30 minutes, hypoxia alone 4.5
[4] = FIG. 30a experiment 1, 10 ng/ml, 60 minutes, hypoxia alone 4.5
[5] = FIG. 30b experiment 2, 10 ng/ml, 5 minutes, hypoxia alone 4.21
[6] = FIG. 30b experiment 2, 10 ng/ml, 20 minutes, hypoxia alone 4.21
[7] = FIG. 30b experiment 2, 10 ng/ml, 30 minutes, hypoxia alone 4.21
[8] = FIG. 30b experiment 2, 10 ng/ml, 60 minutes, hypoxia alone 4.21
[9] = 20 minutes, absence of p-ERK-inhibitor peptide, hypoxia alone 11
[10] = 20 minutes, presence of p-ERK-inhibitor peptide

GRP78 receptor internalization (GRP78)	Substance	percent adjusted volume of phospho ERK½ band (ERK½; [1]) [%]	percent adjusted volume of phospho ERK½ band (ERK½; [2]) [%]	percent adjusted volume of phospho ERK½ band (ERK½; [3]) [%]	percent adjusted volume of phospho ERK½ band (ERK½; [4]) [%]	percent adjusted volume of phospho ERK½ band (ERK½; [5]) [%]	percent adjusted volume of phospho ERK½ band (ERK½; [6]) [%]	percent adjusted volume of phospho ERK½ band (ERK½; [7]) [%]	percent adjusted volume of phospho ERK½ band (ERK½; [8]) [%]	percent adjusted volume of pERK band (ERK½; [9]) [%]	percent adjusted volume of pERK band (ERK½; [10]) [%]	ERK½ phosphorylation (in words) (ERK½)	incubation time of maximal ERK phosphorylation (densitometry, data not shown) (ERK½) [min]	blood perfusion ratio (ischemic left/control right) (mouse ischemic hind limb)	percent adjusted volume of phospho ERK band (ERK½; FIG. 32a cord 1, 10 ng/ml, 20 minutes, untreated 11, 13) [%]	percent adjusted volume of phospho ERK band (ERK½; FIG. 32a cord 1, 10 ng/ml, 30 minutes, untreated 11, 13) [%]	percent adjusted volume of phospho ERK band (ERK½; FIG. 32b cord 2, 10 ng/ml, 20 minutes, untreated 17) [%]	percent adjusted volume of phospho ERK band (ERK½; FIG. 32b cord 2, 10 ng/ml, 30 minutes, untreated 8) [%]	ERK½ phosphorylation (in words) (ERK½; listed as ADoPep1)
	HWRRP [Motif A, 5 amino acid motif peptide]	10.7	12.4	12.3	12.4	14.9	9.8	12.7	7.8	19	14	significant increase in ERK½ phosphorylation; also recorded: induction of ERK½ phosphorylation	20 to 60						
induced GRP78 receptor internalization	HWRRAHLLPRLP [ADOPep1, ADAM15 derived peptide, amino acids 286-297 of the metalloprotease domain]	9.3	13.7	13.3	11.2	12.4	12.5	14.8	10.9	14	8.8	significant increase in ERK½ phosphorylation; also recorded: induced ERK½ phosphorylation	20	significant increase in the blood perfusion ratio; also recorded: significant increase in blood perfusion (p<0.05)	17	16.7	22	13	induction of ERK½ phosphorylation
